Holding throughout (assay): inhibition of tumour cell growth, NCI panel, 48 h
Assay [1] relates to SK-MEL-5 melanoma.
Assay [2] has as its system SK-MEL-2 melanoma.
The test system of assay [3] is SW-620 colon.
The subject of assay [4] is MALME-3M melanoma.
Assay [5] concerns SF-295 CNS.
For assay [6], the system named is SNB-19 CNS.
In assay [7] the test system is MOLT-4 leukemia.
In assay [8] the test system is NCI/ADR-RES ovarian.
The test system of assay [9] is SR leukemia.
The subject of assay [10] is A549 NSCLC.

Each structure is given as a SMILES string.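 Tested at 5 concentrations; 48 h exposure; 96-well plates; endpoints linearly interpolated, else capped at highest concentration. Here, GI50 denotes the concentration required for 50% inhibition of growth. TGI marks complete inhibition of growth.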

Here are results for 13 compounds from PubChem BioAssay (NCI).

`CC1OC2=N[C@@H]1C(=O)N[C@@H](C(C)C)C1=N[C@H](C(=O)N[C@@H](C(C)C)C3=N[C@H](C(=O)N[C@@H](C(C)C)C4=N[C@H](C(=O)N[C@H]2C(C)C)C(C)O4)C(C)O3)C(C)O1` (some centres not stated): the TGI in assay [1], in assay [2], in assay [3], in assay [4], in assay [5] and in assay [6] was more than 10 µM in each case. Moreover, the TGI in assay [7], in assay [8] and in assay [9] was more than 10 µM in each case.
Consider `COc1ccc(/C=c2\[nH]c3nc(=O)c(N4CCOCC4)c(N)n3c2=O)cc1`, for which the TGI in [10], in [1], in assay [3], in [4], in assay [5] and in [6] was more than 100 µM in each case. The TGI in [7], in assay [8] and in [9] was more than 100 µM each time.
`Cc1cc(C)c(P2C(=C(O[Si](C(C)C)(C(C)C)C(C)C)C(C)(C)C)C2(c2ccccc2)c2ccccc2)c(C)c1` (configuration not stated): the TGI in assay [10], in assay [1], in [2], in [3], in assay [5] and in assay [6] was more than 100 µM throughout. Also, the TGI in assay [7], in assay [8] and in assay [9] was more than 100 µM in each case.
`Cc1ccc(C(C)(C)C[P+](C)(c2ccccc2)c2ccccc2)cc1`: the TGI in assay [10] was more than 100 µM; in assay [1], 12.7 µM; in assay [2], 19.7 µM; in assay [3], more than 100 µM; in [4], more than 48.8 µM; in assay [5], more than 85.2 µM. Further, the TGI in [6] is 89.3 µM; in assay [7], 42.7 µM; in [8], more than 100 µM.
For the compound `COc1cc2nc(-c3ccc4ccccc4c3)[nH]c(=O)c2cc1OC`, the TGI in [10] was more than 100 µM; in [1] it was more than 100 µM; in [2], more than 100 µM; in assay [4] it was more than 100 µM; in assay [5] it was more than 100 µM; in assay [6], 97.2 µM. Further, the TGI in [7], in [8] and in assay [9] was more than 100 µM in each case.
`Clc1ccc(N2N=C(c3cccc(Nc4ccncc4)c3)CC2c2ccc3c(c2)OCO3)cc1` (configuration not stated): the GI50 in [1] was 1.76 µM; in assay [2], 2.09 µM; in [3], 1.63 µM; in assay [5], 1.79 µM; in assay [6] it was 1.94 µM; in [7], 1.97 µM. Moreover, the GI50 was 1.64 µM in [8] and 2 µM in [9]. Besides, the TGI turned out to be 3.17 µM in [1]; 4.59 µM in assay [2]; 3.15 µM in [3]; 3.29 µM in assay [5]; 4.51 µM in assay [6]; 4.58 µM in [7]. Further, the values for the TGI in assay [8] and in [9] were 3.17 µM and 4.76 µM, respectively.
Regarding `CC(=O)O[C@@H]1C[C@@]23C[C@@]24CC[C@H](OC2OCC(O)C(O)C2O)C(C)(C)[C@@H]4CC=C3[C@]2(C)C[C@@H]3OC4(C[C@@H](C)[C@@H]3[C@@]12C)OC(O)[C@@]1(C)O[C@@H]41` (some centres not stated), the TGI in [10] was more than 100 µM; in [1], 42.7 µM; in [2] it was 40.7 µM; in [3], more than 100 µM; in assay [4], more than 100 µM; in assay [5], 80.6 µM. For the same compound, the TGI in assay [6] and in [8] was more than 100 µM throughout.
`Cc1nc2c3c(ncn2n1)Oc1c(c(-c2ccccc2)nn1-c1ccccc1)C3c1ccc(Cl)cc1` (configuration not stated): the TGI in assay [10], in assay [2], in assay [3], in [4], in assay [5] and in assay [6] was more than 100 µM each time. The TGI in assay [7], in assay [8] and in assay [9] was more than 100 µM each time.
`O=[N+]([O-])c1ccc(S[C@@H]2[C@H]3c4c(-c5ccccc5)[nH]c(-c5ccccc5)c4[C@@H]2C[C@H]3Cl)cc1`: the TGI is more than 100 µM in [10]; 23.5 µM in assay [1]; 70.9 µM in assay [2]; more than 100 µM in [3]; 78.9 µM in assay [4]; more than 100 µM in assay [5]. For the same compound, the values for the TGI in [6], in assay [8] and in assay [9] were more than 100 µM, 26.4 µM and more than 100 µM, respectively.
On to `Clc1ccc(Cc2nc3ccccc3nc2-c2cccc(Br)c2)cc1`, for which the TGI in [10] stood at 35.6 µM; in [1] it was 27.5 µM; in [2], 17.8 µM; in [3], 4.49 µM; in assay [4], 22.5 µM; in [5] it was 31.2 µM. The TGI was 3.14 µM in assay [6], 6.84 µM in [7] and 15.3 µM in assay [8].
As to `C/C(=C\c1ccccn1)c1ccccn1`, the TGI in assay [10], in [1], in assay [2], in assay [4], in assay [5] and in assay [6] was more than 100 µM each time. Besides, the TGI in assay [7] and in assay [8] was more than 100 µM in each case.
On to `Cc1cc(=O)n2nc(SCc3ccccc3)sc2n1`, for which the TGI in assay [10], in [1], in assay [3], in [4], in assay [5] and in [6] was more than 100 µM in each case. For the same compound, the TGI in assay [7], in assay [8] and in assay [9] was more than 100 µM in each case.
On to `CCOC(=O)c1c(CN2CCNCC2)nc2ccccc2c1-c1ccccc1`, for which the TGI was found to be 33.1 µM in assay [10]; 28.5 µM in assay [1]; 29.3 µM in assay [2]; 34.9 µM in assay [3]; 22 µM in assay [4]; 29 µM in [5]. The TGI in [6] was 33.6 µM; in assay [7], 25 µM; in assay [8] it was 34.4 µM.
